“And” between values parts separate entries of the source, which are not always exact repeats. Equal entries are not always repeated.
How the values were obtained:
Assay in all cases: MTT cell death assay, chemotherapeutic with and without MADD siRNA knockdown
H2227 lung cancer cells = format: cell-based; conditions: siRNA 10 nM
Procedure: (§1) Cells are cultured and maintained at 37° C. in a humidified atmosphere containing 5% CO2 as described above. On Day 0, Cells are seeded in […] tissue culture dishes (Corning; Cat Number: 353003) to attain 60-70% confluence. In parallel, cells are also seeded in one 96-well plate (Corning; Cat number: 353072) for analysis of survival before reseeding. After 12-18 hours (Day 1), cells are transfected with Scramble or MADD siRNA at 10 nM concentration. The sequences of siRNAs (double-stranded) used are:
(§2) On Day 4, when cells are properly adhered and retained their shape in 96-well plates, drugs are added. All drugs are diluted in complete media on the same day prior to the addition to the cells. In untreated cells, media is replaced with complete media. Two hundred μl volume of media (with or without drugs) is used for the drug treatment assay. Plates are incubated 24 hours, 48 hours and 72 hours at 37° C. in humidified CO2 incubator.
(§3) An MTT assay is performed to determine relative survival after drug treatment as described above. MTT (3-[4,5-Dimethylthiazol-2-yl]-2,5-diphenyltetrazolium bromide; Thiazolyl blue) is purchased from Sigma Aldrich (Cat number: M5655). MTT is dissolved in sterile DPBS at the concentration of 5 mg/ml and filtered through 0.45 μM syringe filter (Corning; Cat number: 431220). Ten μl of MTT solution is added per well of 96-well plate. Plates are incubated for 2 hours at 37° C. in the humidified CO2 incubator. After 2 hours, media is aspirated using vacuum inside the biosafety hood. Purple colored crystals formed in viable cells are dissolved by adding 100 μl of Dimethyl sulfoxide (Thermo Fisher Scientific; Cat number D128-500) Plates are kept on shaker for 10 minutes for compete dissolution of crystals and absorbance is recorded at 595 nm using Bio-Rad iMark microplate reader. Data is analyzed in MICROSOFT EXCEL® software. Relative survival is calculated with respect to absorbance of control (untreated cells) to determine the effect of transfection as well as combination treatment.
(§4) Each data set takes into account any spontaneous cell death which is observed upon transfection with Scramble siRNA; the amount of spontaneous cell death from Scramble siRNA transfection (baseline) is subtracted from the amount of cell death observed in each siRNA transfection reaction to yield a Net Percent (Net %) cell death after accounting for Scrambled siRNA-induced cell death.
as §1, with “(double stranded)” for “(double-stranded)”
as §2, with “added. Doxorubicin was added at a working concentration of 5.0 nM, 9.375 nM, 0.075 μM, 0.25 μM, 0.5 μM, and 0.8 μM.” for “added.”
(§5) An MTT assay is performed to determine relative survival after drug treatment as described above. MTT (3-[4,5-Dimethylthiazol-2-yl]-2,5-diphenyltetrazolium bromide; Thiazolyl blue) is purchased from Sigma Aldrich (Cat number: M5655). MTT is dissolved in sterile DPBS at the concentration of 5 mg/ml and filtered through […] syringe filter (Corning; Cat number: 431220). Ten μl of MTT solution is added per well of 96-well plate. Plates are incubated for 2 hours at 37° C. in the humidified CO2 incubator. […]

[1] = test system: K562 chronic myelogenous leukemia cells; format: cell-based; conditions: siRNA 10 nM
Procedure: as §1, §2, §3, §4
as §1, with “(double stranded)” for “(double-stranded)”
as §2, with “added. Doxorubicin was added at a working concentration of 5.0 nM, 9.375 nM, 0.075 μM, 0.25 μM, 0.5 μM, and 0.8 μM.” for “added.”
as §5

[2] = test system: SU.86.86 pancreatic cancer cells; format: cell-based; conditions: siRNA 10 nM
Procedure: as §1, §2, §3, §4
as §1, with “(double stranded)” for “(double-stranded)”
as §2, with “added. Doxorubicin was added at a working concentration of 5.0 nM, 9.375 nM, 0.075 μM, 0.25 μM, 0.5 μM, and 0.8 μM.” for “added.”
as §5

[3] = test system: C643 thyroid cancer cells; format: cell-based, human; conditions: Sorafinib 0.975 μM, siRNA 10 nM, 48 hours post Sorafinib treatment
Procedure: as §1, §2, §3, §4

[4] = test system: 8505C thyroid cancer cells; format: cell-based; conditions: siRNA 10 nM
Procedure: Cells are cultured and maintained at 37° C. in a humidified atmosphere containing 5% CO2 as described above. […] After 12-18 hours (Day 1), cells are transfected with Scramble or MADD siRNA at 10 nM concentration. The sequences of siRNAs (double stranded) used are:
as §2, with “24 h,” for “24 hours,”, “48 h” for “48 hours”
as §3, with “MTT is dissolved in sterile DPBS at the concentration of 5 mg/ml and filtered through 0.45 μM syringe filter (Corning; Cat number: 431220).” left out
as §4, §2

[5] = Sorafinib 3 μM, 48 hours post Sorafinib treatment
[6] = Sorafinib 0.3125 μM, 72 hours post Sorafinib treatment
[7] = Sorafinib 1.25 μM, 48 hours post Sorafinib treatment
[8] = Sorafinib 1.25 μM, 72 hours post-Sorafinib treatment
[9] = Sorafinib 5 μM, 24 hours post Sorafinib treatment
[10] = Doxorubicin 9.375 nM, 48 hours post Doxorubicin treatment
[11] = Gemcitabine 25 nM, 48 hours post Gemcitabine treatment
[12] = Doxorubicin 0.25 μM, 72 hours post Doxorubicin treatment
[13] = Doxorubicin 0.5 μM, 48 hours post Doxorubicin treatment
[14] = TRAIL 6.25 ng/ml, 72 hours post TRAIL treatment
[15] = TRAIL 12.5 ng/ml, 48 hours post TRAIL treatment
[16] = Doxorubicin 5 nM, 24 hours post Doxorubicin treatment
[17] = 8505C thyroid cancer cells, TRAIL 6.25 ng/ml, 48 hours post TRAIL treatment
[18] = 8505C, Cisplatin 2.5 μM, 48 hours post Cisplatin treatment
[19] = 8508C thyroid cancer cells, TRAIL 6.25 ng/ml, 48 hours post TRAIL treatment

## CNC(=O)c1cc(Oc2ccc(NC(=O)Nc3ccc(Cl)c(C(F)(F)F)c3)cc2)ccn1 [Sorafinib]
H2227 lung cancer cells; [5]
  Net % cell death after accounting for Scrambled siRNA: 18%
  Observed % Cell death: 18%
[1]; [6]
  Net % cell death after accounting for Scrambled siRNA: 0%
  Observed % Cell death: 0%
[1]; [7]
  Net % cell death after accounting for Scrambled siRNA: 0%
  Observed % Cell death: 0%
[2]; [8]
  Net % cell death after accounting for Scrambled siRNA: 0%
  Observed % Cell death: 0%
[2]; [9]
  Net % cell death after accounting for Scrambled siRNA: 17%
  Observed % Cell death: 17%
[3]
  Net % cell death after accounting for Scrambled siRNA: 3%
  Observed % Cell death: 3%

## MADD siRNA: siRNA targeting exon 13L of the MADD splice variant of the IG20 gene; SEQ ID NO: 4, 5′-GAUUGUCAUAGAUUCGCCGTT-3′ (chemistry not given here)
H2227 lung cancer cells; [10]
  Observed % Cell death: 35%
H2227 lung cancer cells; [11]
  Observed % Cell death: 35%
H2227 lung cancer cells; [5]
  Observed % Cell death: 35%
[1]; [12]
  Net % cell death after accounting for Scrambled siRNA: 47% and 59 − 12 = 47%
  Observed % Cell death: 59%
[1]; [13]
  Observed % Cell death: 53%
[1]; [6]
  Net % cell death after accounting for Scrambled siRNA: 47% and 59 − 12 = 47%
  Observed % Cell death: 59%
[1]; [7]
  Observed % Cell death: 53%
[1]; [14]
  Net % cell death after accounting for Scrambled siRNA: 47% and 59 − 12 = 47%
  Observed % Cell death: 59%
[1]; [15]
  Observed % Cell death: 53%
[2]; [16]
  Net % cell death after accounting for Scrambled siRNA: 0% and 9 − 11 = 0%
  Observed % Cell death: 9%
[2]; [8]
  Observed % Cell death: 41%
[2]; [9]
  Net % cell death after accounting for Scrambled siRNA: 0% and 9 − 11 = 0%
  Observed % Cell death: 9%
[3]
  Net % cell death after accounting for Scrambled siRNA: 13% and 14 − 1 = 13%
  Observed % Cell death: 14%
[4]; [17]
  Net % cell death after accounting for Scrambled siRNA: 39% and 49 − 10 = 39%
[4]; [18]
  Net % cell death after accounting for Scrambled siRNA: 39% and 49 − 10 = 39%
  Observed % Cell death: 49%
[4]; [19]
  Observed % Cell death: 49%

## Scrambled siRNA: non-specific Scramble siRNA, negative control; SEQ ID NO: 5, 5′-UUGCUAAGCGUCGGUCAAUTT-3′ (chemistry not given here)
H2227 lung cancer cells; [10]
  Net % cell death after accounting for Scrambled siRNA: 28 − 28 = 0%
  Observed % Cell death: 28%
H2227 lung cancer cells; [11]
  Net % cell death after accounting for Scrambled siRNA: 28 − 28 = 0%
  Observed % Cell death: 28%
H2227 lung cancer cells; [5]
  Net % cell death after accounting for Scrambled siRNA: 28 − 28 = 0%
  Observed % Cell death: 28%
[1]; [12]
  Net % cell death after accounting for Scrambled siRNA: 12 − 12 = 0%
  Observed % Cell death: 12%
[1]; [13]
  Net % cell death after accounting for Scrambled siRNA: 49 − 49 = 0%
  Observed % Cell death: 49%
[1]; [6]
  Net % cell death after accounting for Scrambled siRNA: 12 − 12 = 0%
  Observed % Cell death: 12%
[1]; [7]
  Net % cell death after accounting for Scrambled siRNA: 49 − 49 = 0%
  Observed % Cell death: 49%
[1]; [14]
  Net % cell death after accounting for Scrambled siRNA: 12 − 12 = 0%
  Observed % Cell death: 12%
[1]; [15]
  Net % cell death after accounting for Scrambled siRNA: 49 − 49 = 0%
  Observed % Cell death: 49%
[2]; [16]
  Net % cell death after accounting for Scrambled siRNA: 11 − 11 = 0%
  Observed % Cell death: 11%
[2]; [8]
  Net % cell death after accounting for Scrambled siRNA: 28 − 28 = 0%
  Observed % Cell death: 28%
[2]; [9]
  Net % cell death after accounting for Scrambled siRNA: 11 − 11 = 0%
  Observed % Cell death: 11%
[3]
  Net % cell death after accounting for Scrambled siRNA: 1 − 1 = 0%
  Observed % Cell death: 1%
[4]; [17]
  Net % cell death after accounting for Scrambled siRNA: 10 − 10 = 0%
[4]; [18]
  Net % cell death after accounting for Scrambled siRNA: 10%
  Observed % Cell death: 10%
[4]; [19]
  Observed % Cell death: 10%

B1: TRAIL: cytotoxic protein which induces apoptosis in tumor cells, but not in normal cells (protein, UniProt P50591 1-281, looked up)
Tumor necrosis factor ligand …: MAMMEVQGGPSLGQTCVLIVIFTVLLQSLCVAVTYVYFTNELKQMQDKYSKSGIACFLKEDDSYWDPNDEESMNSPCWQVKWQLRQLVRKMILRTSEETISTVQEKQQNISPLVRERGPQRVAAHITGTRGRSNTLSSPNSKNEKALGRKINSWESSRSGHSFLSNLHLRNGELVIHEKGFYYIYSQTYFRFQEEIKENTKNDKQMVQYIYKYTSYPDPILLMKSARNSCWSKDAEYGLYSIYQGGIFELKENDRIFVSVTNEHLIDMDHEASFFGAFLVG
[1]; [14]
  Net % cell death after accounting for Scrambled siRNA: 0%
  Observed % Cell death: 0%
[1]; [15]
  Net % cell death after accounting for Scrambled siRNA: 0%
  Observed % Cell death: 0%
[4]; [17]
  Net % cell death after accounting for Scrambled siRNA: 6.56% and 7%
[4]; [19]
  Observed % Cell death: 7%

Reference: patent US11273172B2, “Synergistic combination of oligonucleotides and chemotherapeutic for treating cancer” (THE BOARD OF TRUSTEES OF THE UNIVERSITY OF ILLINOIS, priority 2017, dated 2022)
